Laboratory results as given in article PMC8550792, “Evolution of kinase polypharmacology across HSP90 drug discovery” (Cell Chemical Biology, 2021).

Legend:
Assay in all cases: biochemical
Type in all cases: biochemical
382 unique human kinases [1] = target: T1, 382 unique human kinases (Homo sapiens, UniProt Q16539, T106M); details: P38a (T106M), 10 uM; for remaining activity at 10 µM: read-out: % Enzyme Activity (relative to DMSO controls)
T1 construct: purchased Reaction Biology (HotSpot contract assay)
T1 sequence (Q16539 whole entry T106M): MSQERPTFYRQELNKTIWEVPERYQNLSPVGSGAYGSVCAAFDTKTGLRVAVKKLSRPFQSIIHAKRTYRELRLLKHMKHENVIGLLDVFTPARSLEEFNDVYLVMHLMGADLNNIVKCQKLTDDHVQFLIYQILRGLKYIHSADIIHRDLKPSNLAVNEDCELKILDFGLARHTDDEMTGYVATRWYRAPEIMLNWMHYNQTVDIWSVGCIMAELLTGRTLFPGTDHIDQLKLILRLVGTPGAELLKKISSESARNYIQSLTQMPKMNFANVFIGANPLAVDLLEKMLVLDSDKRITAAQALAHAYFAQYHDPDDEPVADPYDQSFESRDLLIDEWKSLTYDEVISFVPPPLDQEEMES

382 unique human kinases [2] = target: T2, 382 unique human kinases (Homo sapiens, UniProt Q96PY6); details: NEK1, 10 uM; for remaining activity at 10 µM: read-out: % Enzyme Activity (relative to DMSO controls)
T2 construct: purchased Reaction Biology (HotSpot contract assay)
T2 sequence (Q96PY6 1-1258): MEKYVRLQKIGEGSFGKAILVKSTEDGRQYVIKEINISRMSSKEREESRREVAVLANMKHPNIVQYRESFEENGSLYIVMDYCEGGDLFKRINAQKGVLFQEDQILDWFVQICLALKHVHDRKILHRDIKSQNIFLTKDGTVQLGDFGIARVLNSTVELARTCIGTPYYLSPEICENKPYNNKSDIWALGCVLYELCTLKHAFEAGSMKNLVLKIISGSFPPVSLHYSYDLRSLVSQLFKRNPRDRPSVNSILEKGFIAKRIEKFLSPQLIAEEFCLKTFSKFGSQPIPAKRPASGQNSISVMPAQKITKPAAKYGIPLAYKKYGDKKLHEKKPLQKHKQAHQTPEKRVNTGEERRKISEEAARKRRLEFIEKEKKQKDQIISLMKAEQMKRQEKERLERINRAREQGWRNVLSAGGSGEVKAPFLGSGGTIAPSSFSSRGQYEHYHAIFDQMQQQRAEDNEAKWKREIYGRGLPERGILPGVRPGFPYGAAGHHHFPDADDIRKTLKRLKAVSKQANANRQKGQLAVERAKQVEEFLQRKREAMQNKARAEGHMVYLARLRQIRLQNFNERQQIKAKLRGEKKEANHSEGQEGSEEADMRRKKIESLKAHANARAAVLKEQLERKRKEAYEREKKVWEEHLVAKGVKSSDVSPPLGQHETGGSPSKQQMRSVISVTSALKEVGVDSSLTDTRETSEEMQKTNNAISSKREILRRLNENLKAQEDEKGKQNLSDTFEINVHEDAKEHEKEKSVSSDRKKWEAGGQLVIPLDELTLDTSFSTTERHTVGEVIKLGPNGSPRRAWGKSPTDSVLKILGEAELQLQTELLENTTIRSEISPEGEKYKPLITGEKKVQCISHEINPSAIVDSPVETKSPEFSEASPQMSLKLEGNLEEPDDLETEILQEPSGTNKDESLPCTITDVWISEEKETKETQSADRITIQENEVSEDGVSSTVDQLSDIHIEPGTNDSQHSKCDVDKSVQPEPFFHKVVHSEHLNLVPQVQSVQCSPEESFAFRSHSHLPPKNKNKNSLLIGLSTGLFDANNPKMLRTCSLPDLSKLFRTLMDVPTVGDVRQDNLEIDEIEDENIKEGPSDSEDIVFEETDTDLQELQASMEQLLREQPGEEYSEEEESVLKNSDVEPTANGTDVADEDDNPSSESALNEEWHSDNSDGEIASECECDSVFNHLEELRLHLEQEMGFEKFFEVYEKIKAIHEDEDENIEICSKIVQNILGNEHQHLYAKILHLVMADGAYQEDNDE

382 unique human kinases [3] = target: T3, 382 unique human kinases (Homo sapiens, UniProt P49137); details: MAPKAPK2, compound at 10 uM, duplicate values; for remaining activity at 10 µM: read-out: % Enzyme Activity (relative to DMSO controls)
T3 construct: purchased Reaction Biology (HotSpot contract assay)
T3 sequence (P49137 whole entry): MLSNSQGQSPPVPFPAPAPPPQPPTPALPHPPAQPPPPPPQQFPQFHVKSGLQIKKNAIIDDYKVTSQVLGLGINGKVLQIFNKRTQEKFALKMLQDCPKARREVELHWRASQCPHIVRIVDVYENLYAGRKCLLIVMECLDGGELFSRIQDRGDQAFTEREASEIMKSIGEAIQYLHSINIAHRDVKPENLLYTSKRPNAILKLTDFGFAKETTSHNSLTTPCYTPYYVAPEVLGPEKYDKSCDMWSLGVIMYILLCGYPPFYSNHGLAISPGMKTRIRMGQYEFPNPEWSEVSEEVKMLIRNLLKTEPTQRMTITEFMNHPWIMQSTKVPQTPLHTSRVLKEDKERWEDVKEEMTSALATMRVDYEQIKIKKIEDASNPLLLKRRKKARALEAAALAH

382 unique human kinases [4] = target: T4, 382 unique human kinases (Homo sapiens, UniProt Q15831); details: LKB1, compound at 10 uM, duplicate values; for remaining activity at 10 µM: read-out: % Enzyme Activity (relative to DMSO controls)
T4 construct: purchased Reaction Biology (HotSpot contract assay)
T4 sequence (Q15831 1-433): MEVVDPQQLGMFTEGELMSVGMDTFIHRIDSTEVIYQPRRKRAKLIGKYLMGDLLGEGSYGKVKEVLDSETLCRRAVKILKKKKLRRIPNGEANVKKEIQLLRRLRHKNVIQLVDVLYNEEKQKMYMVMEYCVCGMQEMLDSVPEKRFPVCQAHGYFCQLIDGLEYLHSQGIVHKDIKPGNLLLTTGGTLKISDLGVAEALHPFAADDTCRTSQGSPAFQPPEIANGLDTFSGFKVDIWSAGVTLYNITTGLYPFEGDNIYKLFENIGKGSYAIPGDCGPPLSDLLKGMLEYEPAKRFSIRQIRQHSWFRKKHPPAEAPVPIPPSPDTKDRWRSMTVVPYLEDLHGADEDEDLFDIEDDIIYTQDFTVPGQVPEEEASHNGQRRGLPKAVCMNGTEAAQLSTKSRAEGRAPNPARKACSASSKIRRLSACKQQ

382 unique human kinases [5] = target: T5, 382 unique human kinases (Homo sapiens, UniProt Q9UHD2); details: kinase TBK1, compound 10 uM; for remaining activity at 10 µM: read-out: % Enzyme Activity (relative to DMSO controls)
T5 construct: purchased Reaction Biology (HotSpot contract assay)
T5 sequence (Q9UHD2 1-729): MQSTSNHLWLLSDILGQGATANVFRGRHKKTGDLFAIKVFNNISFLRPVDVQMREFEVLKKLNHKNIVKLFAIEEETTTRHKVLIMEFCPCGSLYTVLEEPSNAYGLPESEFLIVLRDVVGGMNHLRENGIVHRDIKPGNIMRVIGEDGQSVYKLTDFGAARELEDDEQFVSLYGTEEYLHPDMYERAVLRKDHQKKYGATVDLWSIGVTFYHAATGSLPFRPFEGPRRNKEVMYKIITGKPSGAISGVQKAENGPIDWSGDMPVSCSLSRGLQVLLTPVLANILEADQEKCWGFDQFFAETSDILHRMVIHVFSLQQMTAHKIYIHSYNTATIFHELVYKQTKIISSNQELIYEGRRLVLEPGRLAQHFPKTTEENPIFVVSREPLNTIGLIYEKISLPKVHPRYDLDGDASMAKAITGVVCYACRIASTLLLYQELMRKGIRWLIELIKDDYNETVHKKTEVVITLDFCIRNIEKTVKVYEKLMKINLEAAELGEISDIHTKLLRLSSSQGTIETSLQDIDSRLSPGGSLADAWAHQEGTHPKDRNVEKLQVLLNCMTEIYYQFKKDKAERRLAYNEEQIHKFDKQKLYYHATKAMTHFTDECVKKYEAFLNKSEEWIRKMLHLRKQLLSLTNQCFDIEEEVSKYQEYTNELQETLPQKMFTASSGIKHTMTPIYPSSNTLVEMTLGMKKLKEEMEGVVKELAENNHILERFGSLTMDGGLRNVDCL

SMILES | % Enzyme Activity (relative to DMSO controls) (382 unique human kinases [1]) | remaining activity at 10 µM (382 unique human kinases [1]) | % Enzyme Activity (relative to DMSO controls) (382 unique human kinases [2]) | remaining activity at 10 µM (382 unique human kinases [2]) | remaining activity at 10 µM (382 unique human kinases [3]) | remaining activity at 10 µM (382 unique human kinases [4]) | remaining activity at 10 µM (382 unique human kinases [5]) | % Enzyme Activity (relative to DMSO controls) (382 unique human kinases [3]) | % Enzyme Activity (relative to DMSO controls) (382 unique human kinases [4]) | % Enzyme Activity (relative to DMSO controls) (382 unique human kinases [5])
CCNC(=O)c1noc(-c2cc(C(C)C)c(O)cc2O)c1-c1ccc(CN2CCOCC2)cc1 [Luminespib] | 98.91% | 99.8% | 102.76% | 110% |  |  |  |  |  | 
CC(C)c1cc(-c2n[nH]c(=O)n2-c2ccc3c(ccn3C)c2)c(O)cc1O [Ganetespib (STA9090)] |  |  |  |  | 102% | 110% | 89.4% |  |  | 
CCNC(=O)c1noc(-c2cc(C(C)C)c(O)cc2O)c1-c1ccc(CN2CCOCC2)cc1 [Luminespib (AUY-922)] |  |  |  |  | 106% | 106% | 107% | 105.08% | 103.13% | 105.06%
CC(C)c1cc(-c2n[nH]c(=O)n2-c2ccc3c(ccn3C)c2)c(O)cc1O [Ganetespib] |  | 95.8% |  | 95.7% |  |  |  |  |  | 
